In the CheMixHub viscosity set:
Values joined by “and” are separate entries in the source; they are usually repeats but may differ in a detail not shown here. Equal entries are not always repeated. ± gives the uncertainty stated by the source.

How the values were obtained:
[1] = xn = mol fraction of the nth substance listed

CC(=O)CC(C)C
viscosity
Conditions | 293.15 K | 298.15 K | 303.15 K | 308.15 K | 313.15 K | 318.15 K | 323.15 K
100 kPa | 0.59 ± 0.05 mPa·s | – | 0.53 ± 0.04 mPa·s | – | 0.47 ± 0.04 mPa·s | – | 0.42 ± 0.03 mPa·s
101 kPa | 0.575 mPa·s | 0.543 mPa·s and 0.54 ± 0.017 mPa·s and 0.543 ± 0.007 mPa·s | – | 0.494 mPa·s and 0.476 ± 0.016 mPa·s and 0.456 ± 0.021 mPa·s | 0.443 ± 0.1 mPa·s | – | 0.401 ± 0.1 mPa·s
101.3 kPa | – | 0.543 ± 0.015 mPa·s | 0.519 ± 0.014 mPa·s | – | 0.467 ± 0.013 mPa·s | – | –
101.32 kPa | 0.5848 ± 0.0071 mPa·s | 0.5463 ± 0.0066 mPa·s | – | 0.4871 ± 0.006 mPa·s | – | – | –
101.33 kPa | 0.5848 ± 0.0071 mPa·s and 0.586 ± 0.006 mPa·s | 0.5463 ± 0.0066 mPa·s and 0.542 ± 0.007 mPa·s | 0.52 ± 0.005 mPa·s | 0.4871 ± 0.0059 mPa·s and 0.505 ± 0.007 mPa·s | – | 0.447 ± 0.006 mPa·s | –

CC(C)CC(=O)CC(C)C
100 kPa
Conditions | viscosity [mPa·s]
293.15 K | 0.95 ± 0.03
298.15 K | 0.905 ± 0.028
303.15 K | 0.86 ± 0.03
308.15 K | 0.81 ± 0.03
313.15 K | 0.76 ± 0.02
318.15 K | 0.72 ± 0.02
323.15 K | 0.67 ± 0.02

CC(C)CC(C)(C)C
viscosity
Conditions | 293.15 K | 298.15 K | 303.15 K | 308.15 K | 313.15 K | 318.15 K | 323.15 K
100 kPa | – | 0.492 ± 0.01 mPa·s | – | 0.45 ± 0.01 mPa·s | 0.431 ± 0.009 mPa·s | – | –
101 kPa | 0.498 ± 0.013 mPa·s | – | 0.451 ± 0.01 mPa·s and 0.445 ± 0.0047 mPa·s | 0.428 ± 0.009 mPa·s and 0.427 ± 0.008 mPa·s | – | 0.378 ± 0.008 mPa·s | 0.364 ± 0.008 mPa·s and 0.3593 ± 0.0043 mPa·s
101.33 kPa | – | 0.462 ± 0.013 mPa·s and 0.492 ± 0.004 mPa·s and 0.4842 ± 0.0045 mPa·s | – | 0.412 ± 0.012 mPa·s and 0.441 ± 0.003 mPa·s | 0.391 ± 0.012 mPa·s and 0.4056 ± 0.0043 mPa·s | 0.381 ± 0.011 mPa·s and 0.3848 ± 0.0042 mPa·s | –

CC=Cc1ccc2c(c1)OCO2
Conditions | viscosity [mPa·s]
298.15 K, 101 kPa | 3.981 ± 0.048

CCC(C)N (stereo unspecified)
viscosity
Conditions | 298.15 K | 303.15 K | 308.15 K | 313.15 K | 318.15 K | 323.15 K
101 kPa | – | 0.4024 ± 0.0036 mPa·s | 0.3996 ± 0.041 mPa·s and 0.3996 ± 0.0055 mPa·s | – | – | –
101.33 kPa | 0.4176 ± 0.0038 mPa·s | 0.3884 ± 0.0036 mPa·s | 0.3659 ± 0.0035 mPa·s | 0.3465 ± 0.0033 mPa·s | 0.3274 ± 0.0032 mPa·s | 0.3104 ± 0.0031 mPa·s

CCC12CC3CC(CC(C3)C1)C2
100 kPa
Conditions | viscosity [mPa·s]
293.15 K | 6.43 ± 0.26
298.15 K | 5.606 ± 0.23
303.15 K | 4.931 ± 0.2
308.15 K | 4.365 ± 0.18
313.15 K | 3.887 ± 0.16

CCCC(=O)[O-].CC[NH+](CC)CCO
101 kPa
Conditions | viscosity [mPa·s]
293.15 K | 71.57 ± 1.6
298.15 K | 53.96 ± 1.1
303.15 K | 41.42 ± 0.89
308.15 K | 32.34 ± 0.69
313.15 K | 25.64 ± 0.55
318.15 K | 20.63 ± 0.44
323.15 K | 16.82 ± 0.36

CCCCCC(=O)O
Conditions | viscosity [mPa·s]
298.15 K, 101 kPa | 2.814 ± 0.073
323.15 K, 101.33 kPa | 1.762 ± 0.022

CCCCCCCCCCCCCC[P+](CCCCCC)(CCCCCC)CCCCCC.c1nnc[n-]1
100 kPa
Conditions | viscosity [mPa·s]
293.15 K | 1320 ± 90
298.15 K | 918 ± 56
303.15 K | 654 ± 35
308.15 K | 477 ± 23
313.15 K | 354 ± 15
318.15 K | 269 ± 10
323.15 K | 209 ± 7

CCCCCCO
viscosity
Conditions | 100 kPa | 101 kPa | 101.3 kPa | 101.33 kPa
293.15 K | 5.36 ± 0.97 mPa·s and 5.363 ± 0.063 mPa·s and 5.273 ± 0.061 mPa·s | 4.963 ± 0.03 mPa·s | 5.361 ± 0.12 mPa·s | 4.993 ± 0.061 mPa·s
298 K | 4.502 ± 0.07 mPa·s | – | – | –
298.15 K | 4.45 ± 0.8 mPa·s | – | 4.342 ± 0.052 mPa·s and 4.403 ± 0.1 mPa·s | –
303 K | – | – | – | 3.82 ± 0.05 mPa·s
303.15 K | 3.883 ± 0.11 mPa·s | – | 3.69 ± 0.045 mPa·s | –
308 K | – | – | – | 3.3 ± 0.05 mPa·s
308.15 K | – | – | 3.139 ± 0.038 mPa·s and 3.604 ± 0.084 mPa·s | –
313 K | – | 2.903 ± 0.076 mPa·s | – | 2.87 ± 0.04 mPa·s and 2.82 ± 0.069 mPa·s
313.15 K | 2.9 ± 0.52 mPa·s and 2.896 ± 0.034 mPa·s | 2.86 ± 0.089 mPa·s and 3.451 ± 0.69 mPa·s and 2.934 ± 0.024 mPa·s | – | –
318.15 K | 2.571 ± 0.03 mPa·s and 2.656 ± 0.074 mPa·s | 2.397 ± 0.24 mPa·s and 2.656 ± 0.092 mPa·s | 2.655 ± 0.066 mPa·s | 2.601 ± 0.11 mPa·s
323 K | – | – | – | 2.183 ± 0.047 mPa·s
323.15 K | 2.2 ± 0.4 mPa·s | 2.072 ± 0.067 mPa·s | – | 2.267 ± 0.093 mPa·s

CCCC[n+]1ccccc1.F[B-](F)(F)F
101.3 kPa
Conditions | viscosity
293.15 K | 223 ± 45 mPa·s and 223.1 ± 13 mPa·s
298.15 K | 163 ± 33 mPa·s and 163.3 ± 7.9 mPa·s
303.15 K | 121 ± 24 mPa·s and 123 ± 5 mPa·s
308.15 K | 92.8 ± 19 mPa·s and 94.21 ± 3.3 mPa·s
313.15 K | 72.3 ± 14 mPa·s and 70.29 ± 2.1 mPa·s
318.15 K | 57.4 ± 12 mPa·s and 55.81 ± 1.6 mPa·s
323.15 K | 46.3 ± 9.3 mPa·s and 45.12 ± 1.4 mPa·s

CCOCC
viscosity
Conditions | 293.15 K | 298.15 K | 303.15 K | 303.16 K
101 kPa | 0.239 ± 0.006 mPa·s | – | 0.212 ± 0.006 mPa·s | 0.2193 ± 0.041 mPa·s and 0.2193 ± 0.081 mPa·s
101.33 kPa | 0.25 ± 0.007 mPa·s | 0.225 ± 0.0016 mPa·s | – | –

CCS
Conditions | viscosity [mPa·s]
298.15 K, 101 kPa | 0.2091 ± 0.0019

O=C(OCc1ccccc1)c1ccccc1O
Conditions | viscosity [mPa·s]
303.15 K, 101 kPa | 6.722 ± 0.075

O=C1CCCCC1
Conditions | viscosity
293.15 K, 101.3 kPa | 2.546 ± 0.029 mPa·s
293.15 K, 101.33 kPa | 2.315 ± 1 mPa·s
298.15 K, 101.3 kPa | 1.963 ± 0.025 mPa·s
303.15 K, 101.3 kPa | 1.768 ± 0.022 mPa·s and 1.915 ± 0.022 mPa·s
308.15 K, 101 kPa | 1.631 ± 0.021 mPa·s and 1.632 ± 0.038 mPa·s and 1.632 ± 0.077 mPa·s
308.15 K, 101.3 kPa | 1.602 ± 0.02 mPa·s and 1.585 ± 0.025 mPa·s
313.15 K, 100 kPa | 1.481 ± 0.1 mPa·s
313.15 K, 101 kPa | 1.476 ± 0.016 mPa·s and 1.476 ± 0.019 mPa·s and 1.481 ± 0.07 mPa·s
318.15 K, 100 kPa | 1.285 ± 0.1 mPa·s
318.15 K, 101 kPa | 1.285 ± 0.062 mPa·s and 1.373 ± 0.032 mPa·s and 1.373 ± 0.066 mPa·s
318.15 K, 101.33 kPa | 1.311 ± 0.017 mPa·s

OCCOc1ccccc1
101 kPa
Conditions | viscosity [mPa·s]
303.15 K | 12.86 ± 0.33
313.15 K | 9.235 ± 0.25
323.15 K | 5.927 ± 0.18

CC(=O)CC(C)C + O=C1CCCCC1
[1], 298.15 K, 101 kPa
Conditions | viscosity [mPa·s]
x1 = 0.1218 | 1.58 ± 0.01
x1 = 0.2067 | 1.371 ± 0.012
x1 = 0.3146 | 1.163 ± 0.01
x1 = 0.3931 | 1.037 ± 0.009
x1 = 0.534 | 0.872 ± 0.008
x1 = 0.6373 | 0.773 ± 0.007
x1 = 0.7694 | 0.672 ± 0.007
x1 = 0.888 | 0.599 ± 0.006

CCCCCCCCCCCCCC[P+](CCCCCC)(CCCCCC)CCCCCC.c1nnc[n-]1 + O=C=O
Conditions | viscosity [mPa·s]
[1], 298.15 K, 100 kPa, x2 = 0.5 | 638 ± 55

CCOCC + O=S(=O)(O)O
[1], 303.15 K, 101 kPa
Conditions | viscosity [mPa·s]
x1 = 0.00853 | 206.9 ± 6.5
x1 = 0.01735 | 203 ± 6.3
x2 = 0.05093 | 2.73 ± 0.02
x2 = 0.07611 | 3.096 ± 0.022
x2 = 0.1322 | 4.36 ± 0.03
x2 = 0.1739 | 5.79 ± 0.04
x2 = 0.2412 | 9.824 ± 0.066
x2 = 0.3269 | 21.94 ± 0.14
x2 = 0.3684 | 34.8 ± 0.24
x2 = 0.3933 | 47.52 ± 0.36
x2 = 0.4239 | 67.01 ± 0.56
x2 = 0.4513 | 87.88 ± 1.2
x2 = 0.5139 | 134.5 ± 3
x2 = 0.5527 | 153.7 ± 3.8
x2 = 0.5826 | 161.5 ± 4.2
x2 = 0.636 | 160.6 ± 4.1
x2 = 0.6604 | 156.7 ± 3.9
x2 = 0.729 | 133.8 ± 2.9
x2 = 0.8088 | 127.2 ± 2.6
x2 = 0.8194 | 127.2 ± 2.6
x2 = 0.891 | 138.2 ± 3.1
x2 = 0.9089 | 145.2 ± 3.4
x2 = 0.9478 | 169.2 ± 4.5
x2 = 0.9658 | 187.2 ± 5.4
x2 = 0.9684 | 189.7 ± 5.6
x2 = 0.9737 | 196.3 ± 5.9
